Source: PMC9643456, “Matching amino acids membrane preference profile to improve activity of antimicrobial peptides” (Communications Biology, 2022)
In brackets after ≈: the same amount, converted by molar mass. Square brackets hold non-standard residues; d marks the D form. Ends that are not written are not given here. Peptide text beside a SMILES is read from it. Trp(2,5,7-tBu3) = CC(C)(C)c1cc(C(C)(C)C)c2[nH]c(C(C)(C)C)c(C[C@H](N)C(=O)O)c2c1

Legend:
[1] = tested on: human red blood cells; assay: Hemolytic activity; assay type: cell-based; settings: red cells of human, 18 h
Outline: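 Haemolysis was read as A540 of cleared supernatants after 18 h at 37 °C, with 0% and 100% lysis set by peptide-free PBS and 1% Triton X-100 and melittin as positive control. Human RBCs were at 4% final, peptide serially diluted 100–0.78 μM; three replicates.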

[2] = tested on: MDR E. faecalis; assay: microbe, parasite or virus in culture; settings: CLSI broth microdilution; CAMHB with 50 mg/L Ca2+, 10 mg/L Mg2+; 5 × 10^5 CFU/ml; 18 h 37 °C; triplicate; strain ATCC 51575
Description: (§1) MDR Pseudomonas aeruginosa (CCARM 2180) was purchased from the Culture Collection of Antimicrobial Resistance Microbes (Seoul, Republic of Korea). MDR Acinetobacter baumannii (ATCC BAA-1605) and MDR Enterococcus faecalis (ATCC 51575) were purchased from the American Type Culture Collection (Manassas, VA, USA). MDR Staphylococcus aureus (KCCM 40510) was purchased from the Korean Culture Center of Microorganisms (Seoul, Republic of Korea). S. aureus (KCTC 1621) was purchased from the Korean Collection for Type Cultures. A. baumannii (KCCM 40203) was purchased from the Korean Culture Center of Microorganisms (Seoul, Republic of Korea).
(§2) To assess antimicrobial activity, the MIC50 and MIC90 were measured using broth microdilution following CLSI guidelines. […] Each experiment was performed in triplicate. Meropenem (Sigma, Darmstadt, Germany) and colistin were used as control antibiotics. Cation-adjusted Mueller–Hinton broth (CAMHB) (Becton, Dickinson and Company, Franklin Lakes, USA) with supplied calcium (50 mg/L) and magnesium (10 mg/L) was used for the CLSI-test condition. Bacteria in midlog phase and peptides were separately diluted in CAMHB. The bacteria and peptide solutions were then mixed in 96-well polyethylene plates (SPL, Gyeonggi-do, Korea) and incubated for 18 h at 37 °C. The final concentration for bacteria was 5 × 10^5 CFU/ml. […] The MIC was defined to be the lowest concentration of peptide without visible turbidity by comparing with control antibiotics with the unaided eye. […] Each experiment was performed in triplicate. MICs in albumin and acetic acid solutions were measured using the same protocol but with 0.2% bovine serum albumin (Bovogen, Keilor, Australia), 0.01% acetic acid (Merck, New Jersey, USA), and CAMHB with both calcium and magnesium. In addition, MICs used in the antibiotic resistance acquisition test, the outer–inner membrane permeation test, and the transmembrane potential test and for FE-SEM were individually determined. The final bacterial concentrations used were as follows: for resistance acquisition, optical density (OD) 0.01; for outer–inner membrane permeability assays (LB), OD 0.1; for the transmembrane potential test, 1 × 10^8 CFU/ml (OD 0.171); […]. Inhibitory activity unidentifiable by direct observation was determined by counting the CFUs. Each experiment was performed at least twice.

[3] = tested on: MDR A. baumannii; assay: microbe, parasite or virus in culture; settings: for Minimum inhibitory concentrations, MDR A. baumannii: CLSI broth microdilution, CAMHB with 50 mg/L Ca2+, 10 mg/L Mg2+, 5 × 10^5 CFU/ml, 18 h 37 °C, triplicate, strain ATCC BAA-1605
Description: as §1, §2

[4] = tested on: MDR P. aeruginosa; assay: microbe, parasite or virus in culture; settings: CLSI broth microdilution; CAMHB with 50 mg/L Ca2+, 10 mg/L Mg2+; 5 × 10^5 CFU/ml; 18 h 37 °C; no visible turbidity; triplicate; strain CCARM 2180
Description: as §1, §2

[5] = tested on: MDR S. aureus; assay: microbe, parasite or virus in culture; settings: CLSI broth microdilution; CAMHB with 50 mg/L Ca2+, 10 mg/L Mg2+; 5 × 10^5 CFU/ml; 18 h 37 °C; triplicate; strain KCCM 40510
Description: as §1, §2

With `CC[C@@H](C)[C@@H](NC(=O)[C@@H](Cc1c[nH]c2ccccc12)NC(=O)[C@@H](CC(C)C)NC(=O)[C@@H](CC(C)C)NC(=O)[C@H](N)Cc1c[nH]c2ccccc12)C(=O)NCC(=O)N[C@H](CC(C)C)C(=O)N[C@H](CCCNC(=N)N)C(=O)N[C@H](CCCCN)C(=O)N[C@H](CCCCN)C(=O)N[C@H](CCCNC(=N)N)C(N)=O` [WCopW5] (H-[dW][dL][dL][dW][dI]G[dL][dR][dK][dK][dR]-NH2) the “Hemolysis percent, 25 μM” value [1] was 2.99%, the “Hemolysis percent, 50 μM” value [1] was 7.77% and the “Hemolysis percent, 100 μM” value [1] was 11.60%. For the same compound, the “Minimum inhibitory concentrations, MDR E. faecalis” value [2] was 2.5 µM (≈ 3.67 µg/mL), the “Minimum inhibitory concentrations, MDR A. baumannii” value [3] was 1.25 µM (≈ 1.83 µg/mL) and the “actual MIC as weight/volume concentration” value ([3]; molar MIC converted with the molecular weight (melittin 2.85 kDa, WCopW5 1.47 kDa)) was 1.84 µg/mL. For the same compound, the “Minimum inhibitory concentrations, MDR P. aeruginosa” value [4] was 10 µM (≈ 14.7 µg/mL) and the “Minimum inhibitory concentrations, MDR S. aureus” value [5] was 1.25 µM (≈ 1.83 µg/mL).

`CC[C@@H](C)[C@@H](NC(=O)[C@@H](Cc1c[nH]c2ccccc12)NC(=O)[C@@H](CC(C)C)NC(=O)[C@@H](CC(C)C)NC(=O)[C@H](N)Cc1c[nH]c2ccccc12)C(=O)NCC(=O)N[C@H](CC(C)C)C(=O)N[C@H](CCCNC(=N)N)C(=O)N[C@H](CCCCN)C(=O)N[C@H](CCCCN)C(N)=O` [WCopW8] (H-[dW][dL][dL][dW][dI]G[dL][dR][dK][dK]-NH2) was tested, and the “Hemolysis percent, 25 μM” value [1] was 3.85%, the “Hemolysis percent, 50 μM” value [1] was 8.51% and the “Hemolysis percent, 100 μM” value [1] was 15.04%. The “Minimum inhibitory concentrations, MDR E. faecalis” value [2] was 5 µM (≈ 6.56 µg/mL), the “Minimum inhibitory concentrations, MDR A. baumannii” value [3] was 5 µM (≈ 6.56 µg/mL) and the “Minimum inhibitory concentrations, MDR P. aeruginosa” value [4] was greater than 20 µM. The “Minimum inhibitory concentrations, MDR S. aureus” value [5] was 2.5 µM (≈ 3.28 µg/mL).

With `CC[C@@H](C)[C@@H](NC(=O)[C@@H](Cc1c[nH]c2ccccc12)NC(=O)[C@@H](CC(C)C)NC(=O)[C@H](N)CC(C)C)C(=O)NCC(=O)N[C@H](CC(C)C)C(=O)N[C@H](CCCNC(=N)N)C(=O)N[C@H](CCCCN)C(=O)N[C@H](CCCCN)C(=O)N[C@H](CCCNC(=N)N)C(N)=O` [WCopW13] (H-[dL][dL][dW][dI]G[dL][dR][dK][dK][dR]-NH2) the “Hemolysis percent, 25 μM” value [1] was 1.00%, the “Hemolysis percent, 50 μM” value [1] was 1.13% and the “Hemolysis percent, 100 μM” value [1] was 1.21%. For the same compound, the “Minimum inhibitory concentrations, MDR E. faecalis” value [2] was greater than 20 µM, the “Minimum inhibitory concentrations, MDR A. baumannii” value [3] was 5 µM (≈ 6.41 µg/mL) and the “Minimum inhibitory concentrations, MDR P. aeruginosa” value [4] was greater than 20 µM. For the same compound, the “Minimum inhibitory concentrations, MDR S. aureus” value [5] was greater than 20 µM.

`CC[C@@H](C)[C@@H](NC(=O)[C@@H](Cc1c[nH]c2ccccc12)NC(=O)[C@@H](CC(C)C)NC(=O)[C@H](N)CC(C)C)C(=O)NCC(=O)N[C@H](CC(C)C)C(=O)N[C@H](CCCCN)C(=O)N[C@H](CCCCN)C(=O)N[C@H](CCCCN)C(=O)N[C@H](CCCCN)C(N)=O` [WCopW14] (H-[dL][dL][dW][dI]G[dL][dK][dK][dK][dK]-NH2) was tested, and the “Hemolysis percent, 25 μM” value [1] was 0.98%, the “Hemolysis percent, 50 μM” value [1] was 1.06% and the “Hemolysis percent, 100 μM” value [1] was 1.10%. For the same compound, the “Minimum inhibitory concentrations, MDR E. faecalis” value [2] was greater than 20 µM, the “Minimum inhibitory concentrations, MDR A. baumannii” value [3] was greater than 20 µM and the “Minimum inhibitory concentrations, MDR P. aeruginosa” value [4] was greater than 20 µM. For the same compound, the “Minimum inhibitory concentrations, MDR S. aureus” value [5] was greater than 20 µM.

`CC[C@@H](C)[C@@H](NC(=O)[C@@H](Cc1c[nH]c2ccccc12)NC(=O)[C@@H](CC(C)C)NC(=O)[C@@H](CC(C)C)NC(=O)[C@@H](Cc1c[nH]c2ccccc12)NC(=O)[C@@H](N)CO)C(=O)NCC(=O)N[C@H](CC(C)C)C(=O)N[C@H](CCCNC(=N)N)C(=O)N[C@H](CCCCN)C(=O)N[C@H](CCCCN)C(=O)N[C@H](CCCNC(=N)N)C(N)=O` [WCopW19] (H-S[dW][dL][dL][dW][dI]G[dL][dR][dK][dK][dR]-NH2) was tested, and the “Hemolysis percent, 25 μM” value [1] was 4.32%, the “Hemolysis percent, 50 μM” value [1] was 7.26% and the “Hemolysis percent, 100 μM” value [1] was 10.57%. For the same compound, the “Minimum inhibitory concentrations, MDR E. faecalis” value [2] was 2.5 µM (≈ 3.89 µg/mL), the “Minimum inhibitory concentrations, MDR A. baumannii” value [3] was 2.5 µM (≈ 3.89 µg/mL) and the “Minimum inhibitory concentrations, MDR P. aeruginosa” value [4] was 10 µM (≈ 15.5 µg/mL). The “Minimum inhibitory concentrations, MDR S. aureus” value [5] was 2.5 µM (≈ 3.89 µg/mL).

For `CC[C@@H](C)[C@@H](NC(=O)[C@@H](Cc1c[nH]c2ccccc12)NC(=O)[C@@H](C)NC(=O)[C@@H](C)NC(=O)[C@H](N)Cc1c[nH]c2ccccc12)C(=O)NCC(=O)N[C@H](CC(C)C)C(=O)N[C@H](CCCNC(=N)N)C(=O)N[C@H](CCCCN)C(=O)N[C@H](CCCCN)C(=O)N[C@H](CCCNC(=N)N)C(N)=O` [WCopW20] (H-[dW][dA][dA][dW][dI]G[dL][dR][dK][dK][dR]-NH2), the “Hemolysis percent, 25 μM” value [1] was 0.11%, the “Hemolysis percent, 50 μM” value [1] was 0.13% and the “Hemolysis percent, 100 μM” value [1] was 0.45%. For the same compound, the “Minimum inhibitory concentrations, MDR E. faecalis” value [2] was greater than 20 µM, the “Minimum inhibitory concentrations, MDR A. baumannii” value [3] was 2.5 µM (≈ 3.46 µg/mL) and the “Minimum inhibitory concentrations, MDR P. aeruginosa” value [4] was greater than 20 µM. For the same compound, the “Minimum inhibitory concentrations, MDR S. aureus” value [5] was greater than 20 µM.

`CC(C)C[C@@H](NC(=O)[C@H](N)Cc1c[nH]c2ccccc12)C(=O)N[C@H](CC(C)C)C(=O)N[C@H](Cc1c[nH]c2ccccc12)C(=O)N[C@H](C)C(=O)NCC(=O)N[C@H](C)C(=O)N[C@H](CCCNC(=N)N)C(=O)N[C@H](CCCCN)C(=O)N[C@H](CCCCN)C(=O)N[C@H](CCCNC(=N)N)C(N)=O` [WCopW21] (H-[dW][dL][dL][dW][dA]G[dA][dR][dK][dK][dR]-NH2) was tested, and the “Hemolysis percent, 25 μM” value [1] was 0.60%, the “Hemolysis percent, 50 μM” value [1] was 1.03% and the “Hemolysis percent, 100 μM” value [1] was 1.74%. The “Minimum inhibitory concentrations, MDR E. faecalis” value [2] was greater than 20 µM, the “Minimum inhibitory concentrations, MDR A. baumannii” value [3] was greater than 20 µM and the “Minimum inhibitory concentrations, MDR P. aeruginosa” value [4] was greater than 20 µM. The “Minimum inhibitory concentrations, MDR S. aureus” value [5] was greater than 20 µM.

`CC[C@H](C)[C@H](NC(=O)[C@H](Cc1c[nH]c2ccccc12)NC(=O)[C@H](CC(C)C)NC(=O)[C@H](CC(C)C)NC(=O)[C@@H](N)Cc1c(C(C)(C)C)[nH]c2c(C(C)(C)C)cc(C(C)(C)C)cc12)C(=O)N[C@@H](C)C(=O)N[C@@H](CC(C)C)C(=O)N[C@@H](CCCNC(=N)N)C(=O)N[C@@H](CCCCN)C(=O)N[C@@H](CCCCN)C(N)=O` [WtCopW] (H-[Trp(2,5,7-tBu3)]LLWIALRKK-NH2) was tested, and the “Minimum inhibitory concentrations, MDR E. faecalis” value [2] was 20 µM (≈ 29.9 µg/mL), the “Minimum inhibitory concentrations, MDR A. baumannii” value [3] was 10 µM (≈ 14.9 µg/mL) and the “Minimum inhibitory concentrations, MDR P. aeruginosa” value [4] was greater than 20 µM. The “Minimum inhibitory concentrations, MDR S. aureus” value [5] was 5 µM (≈ 7.47 µg/mL).

HLLWIALRKK-NH2 [HCopW] was tested, and the “Minimum inhibitory concentrations, MDR E. faecalis” value [2] was greater than 20 µM, the “Minimum inhibitory concentrations, MDR A. baumannii” value [3] was greater than 20 µM and the “Minimum inhibitory concentrations, MDR P. aeruginosa” value [4] was greater than 20 µM. The “Minimum inhibitory concentrations, MDR S. aureus” value [5] was greater than 20 µM.

For SLLWIALRKK-NH2 [SCopW], the “Minimum inhibitory concentrations, MDR E. faecalis” value [2] was greater than 20 µM, the “Minimum inhibitory concentrations, MDR A. baumannii” value [3] was greater than 20 µM and the “Minimum inhibitory concentrations, MDR P. aeruginosa” value [4] was greater than 20 µM. The “Minimum inhibitory concentrations, MDR S. aureus” value [5] was greater than 20 µM.

With WLLWIALRKK-NH2 [WCopW] the “Minimum inhibitory concentrations, MDR E. faecalis” value [2] was 10 µM, the “Minimum inhibitory concentrations, MDR A. baumannii” value [3] was 5 µM and the “Minimum inhibitory concentrations, MDR P. aeruginosa” value [4] was greater than 20 µM. The “Minimum inhibitory concentrations, MDR S. aureus” value [5] was 5 µM.
